Assay results reported in ChEMBL document CHEMBL1201862, “PubChem BioAssay data set” (2004).
Calls of active or inactive are those of the source.

Assays:
[1] = target: cGMP-dependent protein kinase 1 (Homo sapiens, UniProt Q13976); type: functional;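 note: value from a kinome panel screen with PRKG1 as the panel member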
[2] = target: Eukaryotic elongation factor 2 kinase (Homo sapiens, UniProt O00418); type: functional
[3] = target: Tyrosine-protein kinase receptor TYRO3 (Homo sapiens, UniProt Q06418); type: functional;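 note: TYRO3 value obtained as one member of a kinome-wide profiling panel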
Sequence of Tyrosine-protein kinase receptor TYRO3 (Q06418 whole entry): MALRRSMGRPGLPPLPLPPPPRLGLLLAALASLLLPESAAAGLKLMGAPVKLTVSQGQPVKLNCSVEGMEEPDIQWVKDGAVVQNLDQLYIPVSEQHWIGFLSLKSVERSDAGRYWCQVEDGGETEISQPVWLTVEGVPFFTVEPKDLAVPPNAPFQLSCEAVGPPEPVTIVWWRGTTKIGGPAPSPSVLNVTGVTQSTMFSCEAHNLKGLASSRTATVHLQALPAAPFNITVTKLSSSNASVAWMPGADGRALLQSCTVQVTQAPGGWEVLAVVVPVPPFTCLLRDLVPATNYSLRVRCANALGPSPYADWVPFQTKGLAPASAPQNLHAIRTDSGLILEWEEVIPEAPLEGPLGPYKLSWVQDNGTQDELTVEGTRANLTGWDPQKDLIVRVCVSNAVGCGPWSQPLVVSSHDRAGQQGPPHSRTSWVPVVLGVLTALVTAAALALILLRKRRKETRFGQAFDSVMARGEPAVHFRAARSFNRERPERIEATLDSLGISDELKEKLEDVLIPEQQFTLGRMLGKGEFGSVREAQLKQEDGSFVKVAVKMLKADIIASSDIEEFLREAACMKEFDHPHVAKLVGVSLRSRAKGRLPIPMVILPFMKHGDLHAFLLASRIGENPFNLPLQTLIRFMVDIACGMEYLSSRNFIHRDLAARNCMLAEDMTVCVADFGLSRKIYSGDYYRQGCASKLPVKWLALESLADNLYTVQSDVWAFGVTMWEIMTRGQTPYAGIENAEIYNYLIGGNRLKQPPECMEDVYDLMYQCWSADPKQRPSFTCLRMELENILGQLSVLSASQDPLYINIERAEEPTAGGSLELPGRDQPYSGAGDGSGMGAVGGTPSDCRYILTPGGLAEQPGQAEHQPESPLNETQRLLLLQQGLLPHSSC

[4] = target: Tyrosine-protein kinase BTK (Homo sapiens, UniProt Q06187); type: functional
[5] = target: Calcium/calmodulin-dependent protein kinase type II subunit delta (Homo sapiens, UniProt Q13557); type: functional
Sequence of Calcium/calmodulin-dependent protein kinase type II subunit delta (Q13557 whole entry, canonical isoform): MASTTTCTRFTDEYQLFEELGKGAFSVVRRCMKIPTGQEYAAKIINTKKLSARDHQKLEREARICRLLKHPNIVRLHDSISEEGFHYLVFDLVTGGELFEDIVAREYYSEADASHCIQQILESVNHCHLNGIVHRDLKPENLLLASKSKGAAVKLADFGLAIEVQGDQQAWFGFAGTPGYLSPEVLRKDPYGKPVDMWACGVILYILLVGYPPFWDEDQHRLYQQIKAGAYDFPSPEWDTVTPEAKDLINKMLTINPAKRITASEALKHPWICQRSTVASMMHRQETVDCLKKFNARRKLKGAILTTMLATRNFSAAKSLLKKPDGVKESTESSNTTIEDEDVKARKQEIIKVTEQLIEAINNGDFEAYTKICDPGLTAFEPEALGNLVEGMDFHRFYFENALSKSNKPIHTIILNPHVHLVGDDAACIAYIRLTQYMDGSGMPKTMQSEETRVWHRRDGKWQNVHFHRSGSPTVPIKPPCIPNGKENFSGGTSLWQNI

[6] = target: Casein kinase I isoform gamma-1 (Homo sapiens, UniProt Q9HCP0); type: functional;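 note: measured as the CSNK1G1 member of a kinome profiling panel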
[7] = target: Ribosomal protein S6 kinase alpha-5 (Homo sapiens, UniProt O75582); type: functional
[8] = target: Serine/threonine-protein kinase TAO1 (Homo sapiens, UniProt Q7L7X3); type: functional
[9] = target: Tyrosine-protein kinase Blk (Homo sapiens, UniProt P51451); type: functional;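 note: obtained as one member of a kinome-wide kinase assay panel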
[10] = target: Mitogen-activated protein kinase kinase kinase 20 (Homo sapiens, UniProt Q9NYL2); type: functional
Sequence of Mitogen-activated protein kinase kinase kinase 20 (Q9NYL2 whole entry): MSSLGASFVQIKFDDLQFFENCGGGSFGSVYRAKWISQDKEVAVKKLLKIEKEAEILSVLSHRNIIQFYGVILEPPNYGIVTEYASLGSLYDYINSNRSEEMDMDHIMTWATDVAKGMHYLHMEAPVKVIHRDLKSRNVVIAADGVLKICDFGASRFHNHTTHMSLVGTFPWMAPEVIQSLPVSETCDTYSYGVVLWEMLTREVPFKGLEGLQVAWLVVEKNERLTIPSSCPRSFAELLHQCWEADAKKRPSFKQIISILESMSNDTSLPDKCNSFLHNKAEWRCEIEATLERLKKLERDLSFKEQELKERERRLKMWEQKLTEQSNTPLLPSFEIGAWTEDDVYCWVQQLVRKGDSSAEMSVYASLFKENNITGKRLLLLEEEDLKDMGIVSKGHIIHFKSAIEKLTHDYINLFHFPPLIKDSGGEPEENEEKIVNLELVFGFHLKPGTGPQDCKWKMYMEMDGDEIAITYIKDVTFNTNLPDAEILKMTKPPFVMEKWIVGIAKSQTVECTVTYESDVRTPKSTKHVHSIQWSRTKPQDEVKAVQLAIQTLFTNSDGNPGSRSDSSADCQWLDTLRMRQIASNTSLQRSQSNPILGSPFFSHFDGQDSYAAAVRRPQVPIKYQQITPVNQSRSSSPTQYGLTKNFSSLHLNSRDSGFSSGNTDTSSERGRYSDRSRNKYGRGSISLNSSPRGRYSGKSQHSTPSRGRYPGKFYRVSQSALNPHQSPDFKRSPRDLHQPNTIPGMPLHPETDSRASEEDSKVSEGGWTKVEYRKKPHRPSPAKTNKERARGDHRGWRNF

[11] = target: Tyrosine-protein kinase Srms (Homo sapiens, UniProt Q9H3Y6); type: functional;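 note: SRMS measured as one member of a kinome-wide kinase profiling panel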
[12] = target: MAP kinase-interacting serine/threonine-protein kinase 2 (Homo sapiens, UniProt Q9HBH9); type: functional
[13] = target: Serine/threonine-protein kinase Nek4 (Homo sapiens, UniProt P51957); type: functional
[14] = target: Tyrosine-protein kinase Fer (Homo sapiens, UniProt P16591); type: functional;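 note: FER tested as one member of a kinome panel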
[15] = target: Homeodomain-interacting protein kinase 4 (Homo sapiens, UniProt Q8NE63); type: functional
[16] = target: SUMO-activating enzyme (Homo sapiens, UniProt Q9UBT2); experiment: inhibitors of in vitro SUMOylation cascade, primary screen, biochemical, HTRF, uHTS (AID 2006); type: protein-complex assay
[17] = target: T1, Protein RecA (Mycobacterium tuberculosis, UniProt P9WHJ3); experiment: Fluorescence Cell-Free Homogeneous Dose Retest to Identify Inhibitors of RecA-Intein Splicing Activity. [Related pubchem assays (depositor defined):AID2097, AID2223, AID489010, AID492950]; type: functional
T1 sequence (P9WHJ3 whole entry): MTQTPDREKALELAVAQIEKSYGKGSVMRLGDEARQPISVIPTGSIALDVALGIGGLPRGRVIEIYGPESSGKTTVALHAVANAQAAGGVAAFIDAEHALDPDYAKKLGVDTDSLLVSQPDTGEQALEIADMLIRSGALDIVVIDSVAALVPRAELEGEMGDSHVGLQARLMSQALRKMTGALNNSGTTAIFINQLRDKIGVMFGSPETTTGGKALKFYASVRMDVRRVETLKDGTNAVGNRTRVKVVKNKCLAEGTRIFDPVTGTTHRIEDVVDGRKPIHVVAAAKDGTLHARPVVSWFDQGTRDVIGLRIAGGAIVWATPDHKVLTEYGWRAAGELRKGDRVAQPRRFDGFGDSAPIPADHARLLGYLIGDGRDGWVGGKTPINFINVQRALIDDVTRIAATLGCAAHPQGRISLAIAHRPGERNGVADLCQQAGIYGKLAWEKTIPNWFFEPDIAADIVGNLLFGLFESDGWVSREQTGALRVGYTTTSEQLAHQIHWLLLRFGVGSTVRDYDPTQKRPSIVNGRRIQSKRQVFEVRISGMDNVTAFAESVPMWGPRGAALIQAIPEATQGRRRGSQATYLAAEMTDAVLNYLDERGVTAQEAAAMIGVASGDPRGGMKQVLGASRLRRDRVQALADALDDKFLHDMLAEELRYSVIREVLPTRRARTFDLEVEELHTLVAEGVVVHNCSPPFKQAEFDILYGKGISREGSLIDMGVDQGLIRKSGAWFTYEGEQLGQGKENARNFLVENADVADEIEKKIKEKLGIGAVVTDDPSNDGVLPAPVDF

[18] = target: T2, Hexokinase HKDC1 (Homo sapiens, UniProt Q2TB90); experiment: HKDC1 hexokinase inhibitors, SAR follow-up, biochemical, set 2 (AID 588355); type: functional
T2 sequence (Q2TB90 whole entry): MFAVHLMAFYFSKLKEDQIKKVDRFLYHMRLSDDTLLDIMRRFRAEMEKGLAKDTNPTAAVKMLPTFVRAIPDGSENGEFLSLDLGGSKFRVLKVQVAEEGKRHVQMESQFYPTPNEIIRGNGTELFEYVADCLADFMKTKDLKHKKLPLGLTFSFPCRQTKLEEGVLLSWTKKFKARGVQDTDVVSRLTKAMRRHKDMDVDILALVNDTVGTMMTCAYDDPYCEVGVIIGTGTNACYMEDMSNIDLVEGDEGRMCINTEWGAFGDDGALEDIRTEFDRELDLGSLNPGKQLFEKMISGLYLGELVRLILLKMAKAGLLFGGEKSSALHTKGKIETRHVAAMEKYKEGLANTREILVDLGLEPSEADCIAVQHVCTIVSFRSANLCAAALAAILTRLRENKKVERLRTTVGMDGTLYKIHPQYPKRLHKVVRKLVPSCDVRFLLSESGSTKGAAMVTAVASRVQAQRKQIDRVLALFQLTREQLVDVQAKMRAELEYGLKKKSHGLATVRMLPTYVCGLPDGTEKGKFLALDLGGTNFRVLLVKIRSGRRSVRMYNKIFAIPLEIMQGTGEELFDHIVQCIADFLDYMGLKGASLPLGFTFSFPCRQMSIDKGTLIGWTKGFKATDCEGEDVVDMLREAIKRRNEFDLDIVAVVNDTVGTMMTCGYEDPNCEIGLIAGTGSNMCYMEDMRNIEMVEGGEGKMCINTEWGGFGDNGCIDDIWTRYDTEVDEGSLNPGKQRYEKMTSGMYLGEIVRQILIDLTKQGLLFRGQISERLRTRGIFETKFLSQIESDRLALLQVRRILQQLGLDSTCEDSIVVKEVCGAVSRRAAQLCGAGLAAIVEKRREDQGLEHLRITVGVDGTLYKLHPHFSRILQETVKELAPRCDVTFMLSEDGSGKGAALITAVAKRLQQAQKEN

[19] = target: LIM domain kinase 1 (Homo sapiens, UniProt P53667); experiment: Navigating the Kinome. Panel member name: LIMK1; type: functional
Sequence of LIM domain kinase 1 (P53667 whole entry, the tested form may be a part): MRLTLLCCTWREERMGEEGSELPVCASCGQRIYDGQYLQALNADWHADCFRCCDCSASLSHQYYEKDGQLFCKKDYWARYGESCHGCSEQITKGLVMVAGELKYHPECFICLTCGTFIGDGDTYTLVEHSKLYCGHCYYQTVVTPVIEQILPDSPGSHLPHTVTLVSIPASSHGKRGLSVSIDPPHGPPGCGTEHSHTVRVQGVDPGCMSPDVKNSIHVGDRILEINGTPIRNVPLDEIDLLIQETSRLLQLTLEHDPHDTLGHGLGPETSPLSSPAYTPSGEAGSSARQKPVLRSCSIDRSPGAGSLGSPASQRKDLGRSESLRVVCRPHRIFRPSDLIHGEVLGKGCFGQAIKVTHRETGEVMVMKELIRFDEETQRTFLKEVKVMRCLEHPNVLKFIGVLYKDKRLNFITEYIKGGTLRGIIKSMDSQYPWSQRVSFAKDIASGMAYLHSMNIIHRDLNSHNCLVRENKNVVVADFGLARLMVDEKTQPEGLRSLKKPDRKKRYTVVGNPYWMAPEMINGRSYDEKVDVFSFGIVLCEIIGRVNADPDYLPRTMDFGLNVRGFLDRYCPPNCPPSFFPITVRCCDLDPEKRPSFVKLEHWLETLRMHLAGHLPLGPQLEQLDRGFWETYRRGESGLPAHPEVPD

[20] = target: Glycogen synthase kinase-3 alpha (Homo sapiens, UniProt P49840); type: functional;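 note: GSK3A result taken from a broad kinome-wide kinase panel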
Sequence of Glycogen synthase kinase-3 alpha (P49840 whole entry): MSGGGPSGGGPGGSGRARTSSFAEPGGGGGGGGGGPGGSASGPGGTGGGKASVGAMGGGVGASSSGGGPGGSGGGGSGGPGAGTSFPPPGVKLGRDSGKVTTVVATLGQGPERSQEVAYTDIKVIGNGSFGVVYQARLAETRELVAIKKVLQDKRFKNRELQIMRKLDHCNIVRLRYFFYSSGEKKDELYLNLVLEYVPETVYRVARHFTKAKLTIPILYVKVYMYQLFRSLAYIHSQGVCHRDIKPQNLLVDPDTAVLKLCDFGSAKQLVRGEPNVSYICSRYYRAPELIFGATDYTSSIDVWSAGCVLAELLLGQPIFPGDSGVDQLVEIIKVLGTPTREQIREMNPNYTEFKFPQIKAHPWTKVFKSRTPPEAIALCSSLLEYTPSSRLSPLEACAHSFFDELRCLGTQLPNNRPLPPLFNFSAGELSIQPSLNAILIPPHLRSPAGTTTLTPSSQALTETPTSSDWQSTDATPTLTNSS

[21] = target: Serine/threonine-protein kinase MRCK alpha (Homo sapiens, UniProt Q5VT25); type: functional
Sequence of Serine/threonine-protein kinase MRCK alpha (Q5VT25 whole entry): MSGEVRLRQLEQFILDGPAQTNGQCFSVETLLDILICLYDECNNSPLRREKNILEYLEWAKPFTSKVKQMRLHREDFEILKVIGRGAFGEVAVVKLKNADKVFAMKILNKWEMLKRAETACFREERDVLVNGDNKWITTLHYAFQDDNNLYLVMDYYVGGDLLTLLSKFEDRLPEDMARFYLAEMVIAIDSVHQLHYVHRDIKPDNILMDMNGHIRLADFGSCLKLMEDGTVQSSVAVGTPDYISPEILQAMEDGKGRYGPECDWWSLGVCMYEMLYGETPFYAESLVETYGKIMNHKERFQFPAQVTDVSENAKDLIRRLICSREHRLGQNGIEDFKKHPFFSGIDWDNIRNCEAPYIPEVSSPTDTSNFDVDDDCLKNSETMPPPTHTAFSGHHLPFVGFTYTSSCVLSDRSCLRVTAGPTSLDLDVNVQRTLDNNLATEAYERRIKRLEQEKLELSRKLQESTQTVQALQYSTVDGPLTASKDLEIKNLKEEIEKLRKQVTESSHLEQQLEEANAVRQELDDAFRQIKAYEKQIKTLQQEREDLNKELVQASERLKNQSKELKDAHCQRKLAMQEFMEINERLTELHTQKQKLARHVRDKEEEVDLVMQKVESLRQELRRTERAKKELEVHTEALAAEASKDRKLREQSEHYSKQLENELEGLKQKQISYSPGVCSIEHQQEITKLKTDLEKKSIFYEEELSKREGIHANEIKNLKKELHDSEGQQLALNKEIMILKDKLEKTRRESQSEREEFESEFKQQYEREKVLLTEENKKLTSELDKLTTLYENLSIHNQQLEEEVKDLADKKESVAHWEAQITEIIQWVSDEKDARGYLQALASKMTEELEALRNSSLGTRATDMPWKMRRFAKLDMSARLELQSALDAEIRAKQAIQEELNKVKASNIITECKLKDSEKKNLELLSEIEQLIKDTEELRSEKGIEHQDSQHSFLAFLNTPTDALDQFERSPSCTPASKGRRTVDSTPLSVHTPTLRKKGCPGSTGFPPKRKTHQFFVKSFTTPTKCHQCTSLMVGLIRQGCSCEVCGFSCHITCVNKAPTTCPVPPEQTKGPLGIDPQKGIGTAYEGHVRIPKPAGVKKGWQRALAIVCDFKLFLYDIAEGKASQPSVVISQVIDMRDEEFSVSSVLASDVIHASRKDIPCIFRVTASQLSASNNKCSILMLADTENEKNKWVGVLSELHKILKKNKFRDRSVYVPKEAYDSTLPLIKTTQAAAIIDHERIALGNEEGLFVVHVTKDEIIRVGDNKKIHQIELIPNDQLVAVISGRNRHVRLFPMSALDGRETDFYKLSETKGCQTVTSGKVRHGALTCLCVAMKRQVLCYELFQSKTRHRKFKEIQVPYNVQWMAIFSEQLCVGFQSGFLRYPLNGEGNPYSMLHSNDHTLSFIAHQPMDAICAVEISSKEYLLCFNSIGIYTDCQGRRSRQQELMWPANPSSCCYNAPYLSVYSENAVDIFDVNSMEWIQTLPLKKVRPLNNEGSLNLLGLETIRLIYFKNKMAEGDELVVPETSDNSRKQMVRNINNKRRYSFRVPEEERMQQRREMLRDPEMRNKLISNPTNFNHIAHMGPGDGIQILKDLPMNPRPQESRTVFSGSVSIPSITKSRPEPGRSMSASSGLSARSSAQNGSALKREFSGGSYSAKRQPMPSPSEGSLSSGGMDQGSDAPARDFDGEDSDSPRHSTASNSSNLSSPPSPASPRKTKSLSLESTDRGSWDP

Cc1n[nH]c2cnc(-c3cncc(OCC(N)Cc4cccc(C(F)(F)F)c4)c3)cc12 (stereo unspecified)
Ki [1]: 15.8 nM (active) | Ki [2]: > 3980 nM (inactive) | Ki [3]: 2000 nM (active) | Ki [4]: > 1260 nM (inactive) | Ki [5]: 5.01 nM (active) | Ki [6]: 63.1 nM (active) | Ki [7]: 79.4 nM (active) | Ki [8]: 31.6 nM (active) | Ki [9]: > 1580 nM (inactive) | Ki [10]: > 7940 nM (inactive) | Ki [11]: > 1580 nM (inactive) | Ki [12]: 631 nM (active) | Ki [13]: 316 nM (active) | Ki [14]: > 1580 nM (inactive) | Ki [15]: 25.1 nM (active)

CC(=O)NC1C(=O)N(CCN2CCOCC2)c2ccc(Cl)cc21 (stereo unspecified)
IC50 [16]: 13400 nM (active) | EC50 [17]: 10500 nM (active) | IC50 [18]: 11500 nM (active)

Cc1c(C=O)c(O)n2c(nc3ccccc32)c1C#N
Ki [19]: 3160 nM (active) | Ki [20]: 3980 nM (active) | Ki [21]: > 10000 nM (inactive)
